Reference: patent US20250011722A1, “HEPATIC ORGANOIDS” (Koninklijke Nederlandse Akademie van Wetenschappen, priority 2021, published 2025)
“Also recorded” adds a separate entry of the source. Values belong to the molecule of their own block, whether it stands above or below them.

Assays:
Format in all cases: cell-based, human
APOB^−/− organoids [1] = experiment: anti-NAFLD drug screening, Nile Red lipid staining and lipid score; settings: APOB^−/− organoids exposed to drugs for 7 days
Experimental: (§1) Compound stocks of all drugs were made in DMSO, except for recombinant hFGF19 and hFGF21 which were reconstituted in AdvDMEM+++. Drugs were dissolved in HEP medium with a maximum final concentration of 0.2% DMSO. The drug panel, their targets, and concentrations tested are described in Table 2.
(§2) APOB^−/− and MTTP^−/− organoids were exposed to the drugs or vehicle in 24-well plates for 7 days with 2 medium changes. Wild type organoids were first made steatotic by pre-incubation with 500 μM FFAs (oleic acid and palmitic acid, 1:1 ratio) for 2 days. Then, FFA-loaded organoids were treated with the different drugs, still in the presence of FFA, for 7 days with 2 medium changes. All organoids were harvested for subsequent lipid staining and lipid scoring as described below. Drug effects were evaluated by observing the lipid droplet fluorescence characteristics within all organoids within the whole well. Quantitative analyses were performed in representative organoids (n≥3) per drug concentration per steatosis organoid model. Drug effects were validated in at least two independent experiments. For drug screening in PLIN2::tdTomato reporter organoids, the organoids were plated in 96-well black plates and treated with the indicated drugs. Pictures were taken over a 7-day time course using the EVOS FL Auto Imaging System. Images and fluorescence quantifications are representative of two independent experiments.
(§3) Organoids were carefully harvested in cold AdvDMEM+++ and washed once with cold AdvDMEM+++ using low-speed centrifugations. Organoids were fixed in 4% formaldehyde at RT for 30 min-1 hour. For lipid stainings, organoids were washed twice with PBS, and incubated with Nile Red (1 μg/μl) and DAPI (1 μg/μl) for 20 min at RT. Organoids were washed twice with PBS, and transferred in 100 μl PBS to a well of a 96-well black SensoPlate for imaging analysis. […] Organoids were washed once with 0.5% BSA-PBS and subsequently incubated with primary antibodies in 2.5% BSA-PBS O/N at 4° C. After 3 washes with 0.5% BSA-PBS, organoids were incubated with secondary antibodies in 2.5% BSA-PBS for 2-4 hours at RT. Organoids were washed once with 0.5% BSA-PBS, after which they were incubated with DAPI (1 μg/μl) in 0.5% BSA-PBS for 20 min at RT, and washed once more with 0.5% BSA-PBS. Organoids were then transferred in 100 μl 0.5% BSA-PBS to a well of a 96-well black SensoPlate.
(§4) Stained organoids were imaged on a Leica Sp8 confocal. Fluorescent images were processed using Photoshop CS4 or ImageJ software. The lipid score was calculated using Fiji software. The lipid score is defined by integrating the lipid droplet fluorescence and lipid droplet area coverage as follows: a fluorescence threshold derived from the lipid droplet signal is determined on Z-projected images to convert them into binary images. The region of interest (ROI) (organoid surface area) is defined based on fluorescence signal from the counterstained DAPI^+ nuclei. Then, particle measurement analysis is performed to define the fluorescence area covered within the defined ROI. The lipid score represents a normalized score of the resulting data on a linear 0 to 1 scale, where the mean calculated values from wild type organoids are arbitrarily set to 0, while the mean calculated values from either vehicle-treated APOB^−/− or MTTP^−/− organoids or vehicle-treated FFA-loaded organoids are set to 1, allowing scoring of drug effectiveness within these boundaries. Quantification of the amount of lipid droplets was performed manually by counting droplets within a given ROI (organoid surface area). The lipid droplet area coverage is determined identical to the lipid score without the final normalization steps.

MTTP^−/− organoids = experiment: as above; settings: MTTP^−/− organoids exposed to drugs for 7 days
Experimental: as §1, §2, §3, §4

[2] = tested on: FFA-loaded wild type organoids; experiment: as above; settings: wild type organoids pre-incubated with 500 μM FFAs 2 days, then drugs 7 days in presence of FFA
Experimental: Wild type human hepatocyte organoids were made steatotic by providing a concentrated mixture of exogenous FFAs (oleic acid (18:1) and palmitic acid (16:0), ratio 1:1) in the culture medium. The FFAs were dissolved in ethanol and thereafter conjugated to bovine serum albumin. Prior to fat loading, organoids were plated into small BME droplets (15 μl/drop) to facilitate FFA penetration. Total concentrations of FFA were 640 μM for transcriptomic analyses to mimic the level of steatosis observed in APOB^−/− or MTTP^−/− organoids.
as §1
as §2, with “experiments. […]” for “experiments. For drug screening in PLIN2::tdTomato reporter organoids, the organoids were plated in 96-well black plates and treated with the indicated drugs. Pictures were taken over a 7-day time course using the EVOS FL Auto Imaging System.”, “experiments. […]” for “experiments.”
as §4, with “Fluorescent images were processed using Photoshop CS4 or ImageJ software.” left out, “Quantification of the amount of lipid droplets was performed manually by counting droplets within a given ROI (organoid surface area). The lipid droplet area coverage is determined identical to the lipid score without the final normalization steps.” left out

[3] = tested on: PLIN2::tdTomato; MTTP^−/− reporter organoids; experiment: drug screening in PLIN2 reporter organoids, fluorescence read-out; settings: PLIN2-tagged reporter organoids, ACCi or vehicle for 5 days
Excerpt: PLIN2 reporter lines in the background of APOB^−/− or MTTP^−/− organoids were generated using CRISPR-HOT as described previously (Artegiani et al., 2020; Hendriks et al., 2021). Briefly, the transfection mixture consisted of a sgRNA targeting the C-terminus of PLIN2, a plasmid providing both Cas9 and a non-human sgRNA targeting the donor plasmid (Addgene #66940), and a donor plasmid encoding either tdTomato (Addgene #138567) or mNeon (a gift from V. Hornung). Upon transfection, the sgRNA targeting the donor plasmid linearizes the donor plasmid to facilitate NHEJ-mediated in-frame gene knock-in of the fluorescent tag into the PLIN2 C-terminus. Upon outgrowth of transfected organoids, fluorescent organoids became apparent. A bulk PLIN2-tagged fluorescence-pure culture was established by sorting single fluorescence-positive cells by FACS. Genotyping was performed to confirm precise gene knock-in.
APOB^−/− and MTTP^−/− organoids were exposed to the drugs or vehicle in 24-well plates for 7 days with 2 medium changes. […] Drug effects were evaluated by observing the lipid droplet fluorescence characteristics within all organoids within the whole well. Quantitative analyses were performed in representative organoids (n≥3) per drug concentration per steatosis organoid model. […] Images and fluorescence quantifications are representative of two independent experiments.

APOB^−/− organoids [4] = experiment: bulk RNA-sequencing of drug-treated organoids
Experimental: Organoids from 1 well of a 12-well plate were harvested and washed in cold AdvDMEM+++. Organoid pellets were lysed in 1 ml TRIzol Reagent and subsequently snap-frozen in liquid nitrogen. RNA was extracted according to the manufacturer's protocol. RNA integrity was measured using the Agilent RNA 6000 Nano kit with the Agilent 2100 Bioanalyzer and RNA concentrations were determined using the Qubit RNA HS Assay Kit. RNA integrity number (RIN) values of RNA samples were typically 9.5-10 and never below 9.0. RNA libraries were prepared TruSeq Stranded mRNA polyA kit and single-end (1×75 bp) sequenced on an Illumina Nextseq 2000 or Nextseq 500. Reads were mapped to the human GRCh38 genome assembly. Differential gene expression analysis was performed using the DESeq2 package (Love et al., 2014) in RStudio. Considered log 2 fold changes and significance (p-values) are indicated throughout the paper. Data visualization was obtained using the ggplot2, ComplexHeatmap, and EnhancedVolcano packages in RStudio or manually plotted using GraphPad Prism 8.

Molecule: COc1ccccc1[C@H](Cn1c(=O)n(C(C)(C)C(=O)O)c(=O)c2c(C)c(-c3ncco3)sc21)OC1CCOCC1 [ACCi, Firsocostat]
steatosis phenotype (lipid staining, lipid score) (APOB^−/− organoids [1]): Effective
steatosis phenotype (lipid staining, lipid score) (MTTP^−/− organoids): Effective
steatosis phenotype (lipid staining, lipid score) [2]: Effective
endogenous fluorescent signal of PLIN2 reporter [3]: reduced the endogenous fluorescent signal
expression of genes important for cell proliferation and DNA synthesis (APOB^−/− organoids [4]): downregulation
expression of key genes involved in glycolysis (ALDOB, HK2, ENO2, PFKFB3/4) (APOB^−/− organoids [4]): downregulated
expression of lipogenic genes (ACACA, FASN, SREBF1, etc.) (APOB^−/− organoids [4]): increased expression

Molecule: CS(=O)(=O)O.O=C([C@@H]1CCCN(c2ccc3[nH]c(C4(n5cc(Cl)cn5)CC4)nc3n2)C1)N1CCCC1 [DGAT2i, PF06424439]
steatosis phenotype (lipid staining, lipid score) (APOB^−/− organoids [1]): Effective
steatosis phenotype (lipid staining, lipid score) (MTTP^−/− organoids): Effective
steatosis phenotype (lipid staining, lipid score) [2]: Effective
transcriptomic changes versus vehicle-treated organoids (APOB^−/− organoids [4]): transcriptomically identical to vehicle-treated organoids; also recorded: very few transcriptomic changes

Molecule: O=C(Nc1ccc2[nH]nc(-c3ccncc3)c2c1)[C@@H]1CCN(CC(=O)N2CCN(c3ccc(-c4ncccn4)cc3)CC2)C1 [ERKi, SCH772984]
steatosis phenotype (lipid staining, lipid score) (APOB^−/− organoids [1]): did not alter the steatosis phenotype
steatosis phenotype (lipid staining, lipid score) (MTTP^−/− organoids): did not alter the steatosis phenotype

Molecule: Cc1nnc(-c2cc(C(=O)N3CCC(c4ccc(C#N)cc4)CC3)c(C)cc2C2CCC2)[nH]1 [FASi, TVB2640]
steatosis phenotype (lipid staining, lipid score) (APOB^−/− organoids [1]): Effective
steatosis phenotype (lipid staining, lipid score) (MTTP^−/− organoids): Effective
steatosis phenotype (lipid staining, lipid score) [2]: Effective
expression of genes important for cell proliferation and DNA synthesis (APOB^−/− organoids [4]): downregulation
expression of key genes involved in glycolysis (ALDOB, HK2, ENO2, PFKFB3/4) (APOB^−/− organoids [4]): downregulated
expression of lipogenic genes (ACACA, FASN, SREBF1, etc.) (APOB^−/− organoids [4]): increased expression

expression of key hepatocyte markers (ALB, TTR) (APOB^−/− organoids [4]): downregulation
Molecule: O=C(O)c1ccnc(N2CC(O)(c3ccc(OCc4c(-c5c(Cl)cccc5Cl)noc4C4CC4)cc3Cl)C2)c1 [FXRa, Cilofexor]
FGF19 expression (APOB^−/− organoids [4]): strongly upregulated
expression of FXR target genes CYP7A1 and CYP27A1 (APOB^−/− organoids [4]): downregulation
expression of NR0B2 (SHP) (APOB^−/− organoids [4]): induction
expression of de novo lipogenesis-related genes, including DGAT2, ACSS2, and GPAM (APOB^−/− organoids [4]): repress
expression of transporters such as BSEP (ABCB11) (APOB^−/− organoids [4]): induction
genes of TGFβ regulation of extracellular matrix (APOB^−/− organoids [4]): gene induction patterns suggestive of TGFβ-related extracellular matrix remodeling

Molecule: Oc1ccc(-c2nc(-c3ccncc3)c(-c3ccc(F)cc3)[nH]2)cc1 [p38i, SB202190]
steatosis phenotype (lipid staining, lipid score) (APOB^−/− organoids [1]): reduced the steatosis phenotype
steatosis phenotype (lipid staining, lipid score) (MTTP^−/− organoids): reduced the steatosis phenotype

Molecule: hFGF19: recombinant human FGF19, activates β-Klotho/FGFRs
steatosis phenotype (lipid staining, lipid score) (APOB^−/− organoids [1]): marked steatosis-reducing effects
steatosis phenotype (lipid staining, lipid score) (MTTP^−/− organoids): marked steatosis-reducing effects
steatosis phenotype (lipid staining, lipid score) [2]: marked steatosis-reducing effects
expression of FXR target genes CYP7A1 and CYP27A1 (APOB^−/− organoids [4]): downregulation
expression of NR0B2 (SHP) (APOB^−/− organoids [4]): induction
expression of de novo lipogenesis-related genes, including DGAT2, ACSS2, and GPAM (APOB^−/− organoids [4]): repress
expression of key hepatocyte markers (ALB, TTR) (APOB^−/− organoids [4]): downregulation
genes of TGFβ regulation of extracellular matrix (APOB^−/− organoids [4]): gene induction patterns suggestive of TGFβ-related extracellular matrix remodeling
